Here are results for one cell line from the supplement of paper PMC10307832.

Holding throughout (experiment): relative viability (nuclei count vs DMSO), 5 days (fraction); higher = more cells survive
Compound in experiment [1]: C(C(=O)C(=O)O)Br [Bromopyruvate] + CCNC(=O)c1noc(-c2cc(C(C)C)c(O)cc2O)c1-c1ccc(CN2CCOCC2)cc1 [Luminespib] (partner 0.01 µM)
In short, it runs like this: (§1)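 After 5 days of treatment, lung cancer cells in 1536-well plates were fixed and stained in a single step (final 0.05% Triton X-100, 1% formaldehyde, 1 ug/ml Hoechst) and their nuclei counted on 4× images. Treatment had been applied by pin tool the day after seeding as one drug alone or as a fixed anchor-drug dose with five library-drug doses (not always all listed) in √10 steps. Relative viability is the nuclei count of treated wells divided by that of vehicle wells, and values are medians of duplicate plates.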

Compound in experiment [2]: CC(O)(CS(=O)(=O)c1ccc(F)cc1)C(=O)Nc1ccc(C#N)c(C(F)(F)F)c1 [Bicalutamide] + CC(=O)c1c(C)c2cnc(Nc3ccc(N4CCNCC4)cn3)nc2n(C2CCCC2)c1=O [Palbociclib] (partner 0.5 µM)
In short, it runs like this:
as §1

Compound in experiment [3]: CC(O)(CS(=O)(=O)c1ccc(F)cc1)C(=O)Nc1ccc(C#N)c(C(F)(F)F)c1 [Bicalutamide] + N=C(N)NC(=N)NCCc1ccccc1 [Phenformin] (partner 250 µM)
In a few lines: as §1

Compound in the experiment “Bicalutamide + Olaparib”: CC(O)(CS(=O)(=O)c1ccc(F)cc1)C(=O)Nc1ccc(C#N)c(C(F)(F)F)c1 [Bicalutamide] + O=C(c1cc(Cc2n[nH]c(=O)c3ccccc23)ccc1F)N1CCN(C(=O)C2CC2)CC1 [Olaparib] (partner 8 µM)
In short, it runs like this: as §1

Consider UMC-11, for which the relative viability turned out to be 0.959 in experiment [1] (first compound 1 µM); 0.998 in experiment [1] (first compound 3.162 µM); 0.987 in experiment [1] (first compound 10 µM); 1.05 in experiment [1] (first compound 31.62 µM); 1.06 in experiment [1] (first compound 100 µM); 0.34 in experiment [2] (first compound 0.08 µM). In addition, the relative viability in experiment [2] (first compound 0.253 µM) came out at 0.367; in experiment [2] (first compound 0.8 µM) it was 0.319; in experiment [2] (first compound 2.53 µM) it was 0.347; in experiment [3] (first compound 0.08 µM), 0.35; in experiment [3] (first compound 0.253 µM) it was 0.319; in experiment [3] (first compound 0.8 µM), 0.372. In addition, the relative viability in experiment [3] (first compound 2.53 µM) is 0.302; in the experiment with Bicalutamide + Olaparib (first compound 0.08 µM), 0.386; with Bicalutamide + Olaparib (first compound 0.253 µM), 0.347; in the experiment with Bicalutamide + Olaparib (first compound 0.8 µM), 0.406; with Bicalutamide + Olaparib (first compound 2.53 µM) it was 0.522.
